Among the data in patent US10889584B2, “Bicyclic bis-heteroaryl derivatives as modulators of protein aggregation” (UCB Biopharma SRL, priority 2017, dated 2021) are IC50 values, retold here.

For this assay, the target named is T1, α-synuclein peptide fragments (Peptide 4F, CTGFVKKDQLGK) (Homo sapiens, UniProt P37840).
T1 construct: purchased American Peptide
In words: In-vitro fluorescence polarization assay with alpha-synuclein peptide fragment (4F). The following applies: peptide 4F 100 nM, 120 min at room temperature, compound 33.3 to 0.015 microM, 50 mM HEPES pH 7.4, 50 mM NaCl, read-out: IC50 (inhibition of self-aggregation of α-synuclein peptide fragment 4F). It is filed as biochemical. As to the method: Biological Example 1: In-Vitro Fluorescence Polarization Assay with Alpha-Synuclein Peptide Fragment (4F)
The fluorescence polarization assay tests the ability of compounds to inhibit the self-aggregation of α-synuclein peptide fragments. Peptides were incubated for 120 min at room temperature in the presence or absence of test compounds (compound concentrations were 33.3 to 0.015 microM). Samples were read on a Beckman Coulter DTX 880 plate reader in fluorescence polarization mode using excitation at 485 nm and emission at 520 nm. Data was analyzed using a four-parameter logistic fit (XLFit, IDBS Software). Peptide 4F (CTGFVKKDQLGK (SEQ ID NO: 1)) was prepared by American Peptide. Fresh peptide samples were reconstituted in purified water at 5 mM and diluted into 50 mM HEPES pH 7.4 with 50 mM NaCl to 100 nM final concentration. Solid compounds were dissolved in DMSO (10 mM), and then diluted serially in DMSO (300×) followed by dilution in buffer (1×) to provide solutions with a consistent final DMSO concentration of 0.33%.
(In general: In fluorescence polarisation assays a small probe gives low polarisation when free and higher when bound to something large.)

Structures are written as SMILES.

For orientation: IC50 means the midpoint of a concentration-inhibition curve. In the case of `CCCCC(Cc1c[nH]c2ccccc12)NC(=O)c1cnc(N2Cc3cn[nH]c3C2)s1` (centres unmarked) [Example 1, 2-(4,6-dihydro-1H-pyrrolo[3,4-c]pyrazol-5-yl)-N-[1-(1H-indol-3-ylmethyl)pentyl]thiazole-5-carboxamide], the IC50 amounted to 2.4 µM.
Regarding `CCCCC(Cc1c[nH]c2ccccc12)NC(=O)c1cnc(N2CCn3cnnc3C2)s1` (centres unmarked) [Example 2, 2-(6,8-dihydro-5H-[1,2,4]triazolo[4,3-a]pyrazin-7-yl)-N-[1-(1H-indol-3-ylmethyl)pentyl]thiazole-5-carboxamide], the IC50 was 2.3 µM.
`CCCCC(Cc1c[nH]c2ccccc12)NC(=O)c1cnc(N2CCc3[nH]ncc3C2)s1` (centres unmarked) [Example 3, N-[1-(1H-indol-3-ylmethyl)pentyl]-2-(1,4,6,7-tetrahydropyrazolo[4,3-c]pyridin-5-yl)thiazole-5-carboxamide]: the IC50 worked out at 2.2 µM.
Turning to `CCCCC(Cc1c[nH]c2ccccc12)NC(=O)c1cnc(N2CCn3nc(C)cc3C2)s1` (centres unmarked) [Example 4, N-[1-(1H-indol-3-ylmethyl)pentyl]-2-(2-methyl-6,7-dihydro-4H-pyrazolo[1,5-a]pyrazin-5-yl)thiazole-5-carboxamide], the IC50 stood at 1.4 µM.
As to `CCCCC(Cc1c[nH]c2ccccc12)NC(=O)c1cnc(N2Cc3cnn(C)c3C2)s1` (centres unmarked) [Example 5, N-[1-(1H-indol-3-ylmethyl)pentyl]-2-(1-methyl-4,6-dihydropyrrolo[3,4-c]pyrazol-5-yl)thiazole-5-carboxamide], the IC50 amounted to 2.1 µM.
`CCCCC(Cc1c[nH]c2ccccc12)NC(=O)c1cnc(N2CCn3nncc3C2)s1` (centres unmarked) [Example 6, 2-(6,7-dihydro-4H-triazolo[1,5-a]pyrazin-5-yl)-N-[1-(1H-indol-3-ylmethyl)pentyl]thiazole-5-carboxamide]: the IC50 amounted to 2.6 µM.
For `CCCCC(Cc1c[nH]c2ccccc12)NC(=O)c1cnc(N2CCn3ncnc3C2)s1` (centres unmarked) [Example 7, 2-(6,8-dihydro-5H-[1,2,4]triazolo[1,5-a]pyrazin-7-yl)-N-[1-(1H-indol-3-ylmethyl)pentyl]thiazole-5-carboxamide], the IC50 came to 2.2 µM.
For `CCCCC(Cc1c[nH]c2ccccc12)NC(=O)c1cnc(N2CCn3nc(C)nc3C2)s1` (centres unmarked) [Example 8, N-[1-(1H-indol-3-ylmethyl)pentyl]-2-(2-methyl-6,8-dihydro-5H-[1,2,4]triazolo[1,5-a]pyrazin-7-yl)thiazole-5-carboxamide], the IC50 worked out at 1.6 µM.
With `CCCCC(Cc1c[nH]c2ccccc12)NC(=O)c1cnc(N2CCn3cncc3C2)s1` (centres unmarked) [Example 9, 2-(6,8-dihydro-5H-imidazo[1,5-a]pyrazin-7-yl)-N-[1-(1H-indol-3-ylmethyl)pentyl]thiazole-5-carboxamide], the IC50 stood at 1.5 µM.
Under `CCCCC(Cc1c[nH]c2ccccc12)NC(=O)c1cnc(N2CCc3onc(C)c3C2)s1` (centres unmarked) [Example 10, N-[1-(1H-indol-3-ylmethyl)pentyl]-2-(3-methyl-6,7-dihydro-4H-isoxazolo[4,5-c]pyridin-5-yl)thiazole-5-carboxamide] stands 0.84 µM; under `CCCCC(Cc1c[nH]c2ccccc12)NC(=O)c1cnc(N2CCc3onc(C(F)(F)F)c3C2)s1` (centres unmarked) [Example 11, N-[1-(1H-indol-3-ylmethyl)pentyl]-2-[3-(trifluoromethyl)-6,7-dihydro-4H-isoxazolo[4,5-c]pyridin-5-yl]thiazole-5-carboxamide], 0.8 µM; under `CCCCC(Cc1c[nH]c2ccccc12)NC(=O)c1cnc(N2CCc3noc(C(F)(F)F)c3C2)s1` (centres unmarked) [Example 12, N-[1-(1H-indol-3-ylmethyl)pentyl]-2-[3-(trifluoromethyl)-6,7-dihydro-4H-isoxazolo[4,3-c]pyridin-5-yl]thiazole-5-carboxamide], 0.9 µM.
On to `CCCCC(Cc1c[nH]c2ccccc12)NC(=O)c1cnc(N2CCn3c(cc(C(F)(F)F)cc3=O)C2)s1` (centres unmarked) [Example 13, N-[1-(1H-indol-3-ylmethyl)pentyl]-2-[6-oxo-8-(trifluoromethyl)-3,4-dihydro-1H-pyrido[1,2-a]pyrazin-2-yl]thiazole-5-carboxamide], for which the IC50 is 1.4 µM.
In the case of `CCCCC(Cc1c[nH]c2ccccc12)NC(=O)c1cnc(N2CCn3c(C)nnc3C2)s1` (centres unmarked) [Example 14, N-[1-(1H-indol-3-ylmethyl)pentyl]-2-(3-methyl-6,8-dihydro-5H-[1,2,4]triazolo[4,3-a]pyrazin-7-yl)thiazole-5-carboxamide], the IC50 was found to be 1.7 µM.
Regarding `CCCCC(Cc1c[nH]c2ccccc12)NC(=O)c1cnc(N2CCc3oncc3C2)s1` (centres unmarked) [Example 15, 2-(6,7-dihydro-4H-isoxazolo[4,5-c]pyridin-5-yl)-N-[1-(1H-indol-3-ylmethyl)pentyl]thiazole-5-carboxamide], the IC50 stood at 1.3 µM.
For the molecule `CCCCC(Cc1c[nH]c2ccccc12)NC(=O)c1cnc(N2CCc3c(cnn3C)C2)s1` (centres unmarked) [Example 16, N-[1-(1H-indol-3-ylmethyl)pentyl]-2-(1-methyl-6,7-dihydro-4H-pyrazolo[4,3-c]pyridin-5-yl)thiazole-5-carboxamide], the IC50 worked out at 1 µM.
`CCCCC(Cc1c[nH]c2ccccc12)NC(=O)c1cnc(N2CCn3ccnc3C2)s1` (centres unmarked) [Example 17, 2-(6,8-dihydro-5H-imidazo[1,2-a]pyrazin-7-yl)-N-[1-(1H-indol-3-ylmethyl)pentyl]thiazole-5-carboxamide]: the IC50 came out at 1.6 µM.
In the case of `CCCCC(Cc1c[nH]c2ccccc12)NC(=O)c1cnc(N2CCn3c(nnc3C(F)(F)F)C2)s1` (centres unmarked) [Example 18, N-[1-(1H-indol-3-ylmethyl)pentyl]-2-[3-(trifluoromethyl)-6,8-dihydro-5H-[1,2,4]triazolo[4,3-a]pyrazin-7-yl]thiazole-5-carboxamide], the IC50 was found to be 1.2 µM.
In the case of `CCCCC(Cc1c[nH]c2ccccc12)NC(=O)c1cnc(N2CCn3nccc3C2)s1` (centres unmarked) [Example 19, 2-(6,7-dihydro-4H-pyrazolo[1,5-a]pyrazin-5-yl)-N-[1-(1H-indol-3-ylmethyl)pentyl]thiazole-5-carboxamide] it was 1.3 µM; in that of `CCCCC(Cc1c[nH]c2ccccc12)NC(=O)c1cnc(N2CCc3nn(C)cc3C2)s1` (centres unmarked) [Example 20, N-[1-(1H-indol-3-ylmethyl)pentyl]-2-(2-methyl-6,7-dihydro-4H-pyrazolo[4,3-c]pyridin-5-yl)thiazole-5-carboxamide], 1.2 µM.
